# Assay results from patent US20170131257A1, “SYSTEMS AND METHODS OF REMOVING AND MANAGING HEAVY METALS” (priority 2007, published 2017).
# Legend:
# [1] = Chelation between mercury and phytic acid at different pH levels; conditions: pH levels including acidic levels commonly found in the stomach
# Excerpt: An amount of food 72 that may contain a concentration of the heavy metal (“contaminated food”) is consumed with an amount of the ligand 74, or, near the time of consuming the ligand 74. In one implementation, the ligand 74 is phytic acid. The ligand 74 is preferably in an amount suitable for at least substantially bonding to the mercury contained within the food 72. The ligand 74 may be prepared in the form of a marinade or sauce directly applied to the food 72, or may be a separate supplement such as a pill, alternate food source, or the like. Ingestion 76 may provide mixing of the food 72 and ligand 74. When the food 72 and ligand 74 are mixed, then chelation 78 causes the mercury or other heavy metal in the food 72 to bond to the ligand 74, thereby forming a chelate 82. The chelate 82 causes food 72 containing some mercury to become a clean food 80, substantially free of the mercury. The clean food 80 proceeds to normal digestion 84, while the chelate 82 proceeds to safe egestion 86 from the body. Thus, the mercury contained within food 72 is passed through the living organism without digestion 84.
# [2] = tested on: Zebra Fish; format: in vivo
# Description: Following EPA Method 7473, a total of 44 Zebra fish were randomized into four one gallon tanks and fed an experimental or control diet for 6 days. On the seventh day the fish were not fed so that any food being digested would have been absorbed or eliminated. The fish were fed 1.0 gram of food twice a day the first day. On the second day the fish were fed 0.5 grams twice a day. On days 3-6 the fish were fed 0.5 gram once a day.
# The control and experimental feed was prepared using:
# 9.8 g. Frozen Thawed Brine Shrimp
# The corn starch and water were boiled for 2 minutes then mixed with the remaining ingredients. The basic food was divided into four groups. The study groups consisted of: the control (Group C), an experimental group in which phytic acid di-sodium salt was added to the feed at 5% by […] (Group A), an experimental group in which 15 μg mercuric iodide salt per gram of food was added (Group B), and lastly Group D in which fish were fed the above stated amounts of mercuric iodide salt and phytic acid di-sodium salt.
# The analysis was conducted by a contracted company, Northwest Pacific Labs. Samples were stratified by treatment and randomly sampled. A test of atomic absorption was used to determine absorbed mercury, after calibrating the instrument.
# [3] = Mercury binding test of substrates in a salt solution
smiles,measurement,setting,value
"O=P(O)(O)O[C@H]1[C@H](OP(=O)(O)O)[C@@H](OP(=O)(O)O)[C@H](OP(=O)(O)O)[C@@H](OP(=O)(O)O)[C@H]1OP(=O)(O)O [Phytic Acid, phytic acid]",chelation with mercury across pH,[1],can occur at a wide range of pH levels
same,reduction of mercury absorption,"[2]; Group D (phytic acid plus mercury) vs mercury alone, baselines of mercury controlled for, seven day time frame",50%
same,"Total Hg Wet Weight, Mean","[2]; Group D: phytic acid 5% per wt. and 15 micrograms HgI2 per gram food, fed 6 days, N=4",.1047
same,"absorbed mercury, group D vs mercury-alone group B","[2]; weighted sample, Mann-Whitney test, Sig=0.000",less absorbed mercury
same,binding of mercury by the substrate,[3],would bind mercury
